Results published in PMC9944328 (Nature Communications, 2023).
Several values for one entry are separate records, joined by “and”; a condition that tells them apart may be missing. Equal entries are not always repeated.

Molecular target: SSTR2 (Homo sapiens, UniProt P30874)
Assay: NanoBiT β-arrestin 1 recruitment assay, HEK293 (SSTR2 wild-type);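 as to Bottom (best-fit): percent of maximal wild-type response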;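 as to Span (best-fit): percent of maximal wild-type response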;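 as to Top (best-fit): percent of maximal wild-type response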
Type: cell-based
Design: Human full-length SSTR wild-type and mutant vectors were C-terminally fused; expressed in transfected cells; host or cells: HEK293
Settings: for Bottom (β-arrestin1 recruitment) / LogEC50 (β-arrestin1 recruitment) / Span (β-arrestin1 recruitment) / Top (β-arrestin1 recruitment): best-fit
Procedure: The NanoBiT β-arrestin 1 recruitment assays were carried out according to the method described previously. […] Human full-length SSTR wild-type and mutant vectors were C-terminally fused with a 15-amino acid flexible linker and the small fragment (SmBiT). HEK293 cells were seeded into six-well microplates at a density of 1.0 × 10^6 cells/well and cultured for 24 h at 37 °C with 5% CO2. After that, cells were co-transfected with pcDNA3.1+ vectors encoding SSTR wild-type or mutants and human β-arrestin 1. After transfecting for 24 h, the transfected cells were suspended and seeded into white 96-well plates, and then cultured at 37 °C overnight. After that the medium in each well was exchanged for 90 μl of 0.01% bovine serum albumin containing 20 μl of 50 μM coelenterazine h (Carbosynth) diluted in the HBSS assay buffer and incubated for 40 min at room temperature. Then, ligands diluted in the assay buffer was added to each well and the luminescence intensity was measured using the Synergy H1 microplate reader and detected at room temperature in a time period. All data presented are means of at least three independent experiments.

SSTR2, sequence (P30874 whole entry): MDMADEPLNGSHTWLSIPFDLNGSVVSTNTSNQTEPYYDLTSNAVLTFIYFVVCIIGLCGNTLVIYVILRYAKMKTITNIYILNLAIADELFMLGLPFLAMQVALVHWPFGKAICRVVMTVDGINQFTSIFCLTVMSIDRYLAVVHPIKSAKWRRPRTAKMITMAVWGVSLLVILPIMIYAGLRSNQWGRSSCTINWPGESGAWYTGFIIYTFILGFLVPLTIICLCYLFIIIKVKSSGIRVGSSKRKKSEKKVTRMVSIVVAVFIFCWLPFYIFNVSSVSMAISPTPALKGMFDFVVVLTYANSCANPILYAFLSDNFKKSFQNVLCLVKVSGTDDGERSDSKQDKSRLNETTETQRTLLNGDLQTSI
SSTR2, sequence (P49407 whole entry partner): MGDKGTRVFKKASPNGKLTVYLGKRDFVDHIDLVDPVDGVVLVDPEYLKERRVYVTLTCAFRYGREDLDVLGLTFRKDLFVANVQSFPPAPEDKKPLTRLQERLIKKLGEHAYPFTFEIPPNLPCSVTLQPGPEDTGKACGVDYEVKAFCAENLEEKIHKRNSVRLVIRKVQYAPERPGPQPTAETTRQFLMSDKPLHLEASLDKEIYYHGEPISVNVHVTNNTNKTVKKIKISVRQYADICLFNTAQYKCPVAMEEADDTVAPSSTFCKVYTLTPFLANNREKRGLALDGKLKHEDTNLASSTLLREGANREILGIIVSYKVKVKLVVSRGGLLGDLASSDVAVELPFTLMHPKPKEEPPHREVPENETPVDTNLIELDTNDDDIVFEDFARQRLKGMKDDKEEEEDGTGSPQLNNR

N#Cc1cccc(-c2ccc3ncc(-c4cc(F)cc(F)c4)c(N4CCC(N)CC4)c3c2)c1O [paltusotine]
Span (best-fit) (WT-1 (D122A set)): 106.9
Top (best-fit) (WT-1 (D122A set)): 107.9
Bottom (best-fit) (WT-1 (F127A set)): -9.341
LogEC50 (best-fit) (WT-1 (F127A set)): -6.513
Span (best-fit) (WT-1 (F127A set)): 113.7
Top (best-fit) (WT-1 (F127A set)): 104.3
Bottom (best-fit) (WT-1 (I130A set)): -0.4941
LogEC50 (best-fit) (WT-1 (I130A set)): -6.535
Span (best-fit) (WT-1 (I130A set)): 106
Top (best-fit) (WT-1 (I130A set)): 105.5
Span (best-fit) (WT-1 (Q102A set)): 106.9
Bottom (best-fit) (WT-1 (Q126A set)): 0.5008
LogEC50 (best-fit) (WT-1 (Q126A set)): -6.514
Span (best-fit) (WT-1 (Q126A set)): 104.2
Top (best-fit) (WT-1 (Q126A set)): 104.7
Bottom (best-fit) (WT-1 (V103A set)): 0.5008
LogEC50 (best-fit) (WT-1 (V103A set)): -6.514
Span (best-fit) (WT-1 (V103A set)): 104.2
Top (best-fit) (WT-1 (V103A set)): 104.7
Bottom (best-fit) (WT-2 (D122A set)): 3.261
LogEC50 (best-fit) (WT-2 (D122A set)): -6.399
Span (best-fit) (WT-2 (D122A set)): 103.6
Top (best-fit) (WT-2 (D122A set)): 106.9
Bottom (best-fit) (WT-2 (F127A set)): -1.812
LogEC50 (best-fit) (WT-2 (F127A set)): -6.566
Span (best-fit) (WT-2 (F127A set)): 107.5
Top (best-fit) (WT-2 (F127A set)): 105.7
Bottom (best-fit) (WT-2 (I130A set)): -1.026
LogEC50 (best-fit) (WT-2 (I130A set)): -6.849
Span (best-fit) (WT-2 (I130A set)): 102.6
Top (best-fit) (WT-2 (I130A set)): 101.5
Bottom (best-fit) (WT-2 (Q126A set)): 0.9805
LogEC50 (best-fit) (WT-2 (Q126A set)): -6.342
Span (best-fit) (WT-2 (Q126A set)): 106.4
Top (best-fit) (WT-2 (Q126A set)): 107.4
Bottom (best-fit) (WT-2 (V103A set)): 0.4349
LogEC50 (best-fit) (WT-2 (V103A set)): -6.531
Span (best-fit) (WT-2 (V103A set)): 102.7
Top (best-fit) (WT-2 (V103A set)): 103.1
Bottom (best-fit) (WT-3 (D122A set)): 0.9805
LogEC50 (best-fit) (WT-3 (D122A set)): -6.342
Span (best-fit) (WT-3 (D122A set)): 106.4
Top (best-fit) (WT-3 (D122A set)): 107.4
Bottom (best-fit) (WT-3 (F127A set)): -0.4941
LogEC50 (best-fit) (WT-3 (F127A set)): -6.535
Span (best-fit) (WT-3 (F127A set)): 106
Top (best-fit) (WT-3 (F127A set)): 105.5
Bottom (best-fit) (WT-3 (I130A set)): -1.282
LogEC50 (best-fit) (WT-3 (I130A set)): -6.883
Span (best-fit) (WT-3 (I130A set)): 103.9
Top (best-fit) (WT-3 (I130A set)): 102.6
Span (best-fit) (WT-3 (Q102A set)): 106.4
Bottom (best-fit) (WT-3 (Q126A set)): 0.9805
LogEC50 (best-fit) (WT-3 (Q126A set)): -6.342
Span (best-fit) (WT-3 (Q126A set)): 106.4
Top (best-fit) (WT-3 (Q126A set)): 107.4
Bottom (best-fit) (WT-3 (V103A set)): 0.5008
LogEC50 (best-fit) (WT-3 (V103A set)): -6.514
Span (best-fit) (WT-3 (V103A set)): 104.2
Top (best-fit) (WT-3 (V103A set)): 104.7
Bottom (β-arrestin1 recruitment) (WT-1): 1.007 and 0.9805 and 0.9636
LogEC50 (β-arrestin1 recruitment) (WT-1): -6.376 and -6.342 and -6.276
Span (β-arrestin1 recruitment) (WT-1): 106.9 and 106.4 and 106.5
Top (β-arrestin1 recruitment) (WT-1): 107.9 and 107.4 and 107.5
Bottom (β-arrestin1 recruitment) (WT-2): 0.9805 and 1.007 and 0.8106
LogEC50 (β-arrestin1 recruitment) (WT-2): -6.342 and -6.376 and -6.212
Span (β-arrestin1 recruitment) (WT-2): 106.4 and 106.9 and 106.8
Top (β-arrestin1 recruitment) (WT-2): 107.4 and 107.9 and 107.6
LogEC50 (β-arrestin1 recruitment) (WT-3): -6.342 and -6.376 and -6.269
Span (β-arrestin1 recruitment) (WT-3): 106.4 and 106.9 and 104.9
Top (β-arrestin1 recruitment) (WT-3): 107.4 and 107.9 and 107.1
Fold of WT (β-arrestin recruitment EC50, SSTR2 WT): 1
